Read-outs that look alike come from different tables or passages of the source.

Test [1] concerns the target T1, ETA receptor in MMQ cells (rET-A) (Rattus norvegicus, UniProt P26684).
T1 construct: endogenous in cells; host or cells: MMQ rat pituitary cells (membranes)
T1 sequence (P26684 21-426): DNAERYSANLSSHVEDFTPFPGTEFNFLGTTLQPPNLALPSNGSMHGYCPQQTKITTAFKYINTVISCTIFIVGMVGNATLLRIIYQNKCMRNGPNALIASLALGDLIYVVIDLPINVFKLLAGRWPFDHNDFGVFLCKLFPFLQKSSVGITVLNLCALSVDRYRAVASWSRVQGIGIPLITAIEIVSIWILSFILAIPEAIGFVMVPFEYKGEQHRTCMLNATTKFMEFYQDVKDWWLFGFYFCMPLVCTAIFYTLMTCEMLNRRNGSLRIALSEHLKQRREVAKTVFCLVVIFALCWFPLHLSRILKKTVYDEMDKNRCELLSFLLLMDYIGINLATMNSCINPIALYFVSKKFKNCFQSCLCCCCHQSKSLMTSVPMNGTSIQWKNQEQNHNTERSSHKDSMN
Put plainly: ETA/ETB selectivity: (125I)ET-1 competition binding, ETA assay in MMQ cell membranes (rET-A). Here is the method:
(§1) The mixture was centrifuged at 1000×g for 10 min. The supernatant was collected and centrifuged at 60,000×g for 60 min. The precipitate was resuspended in 20 mM Tris, pH 7.4 containing protease inhibitor and centrifuged again. The final membrane pellet was resuspended in 20 mM Tris, pH 7.4 containing protease inhibitors and stored at −80° C. until used. Protein content was determined by the Bio-Rad dye-binding protein assay.
(§2) Binding assays were performed in 96-well microtiter plates pretreated with 0.1% BSA. […] After incubation, unbound ligands were separated from bound ligands by a vacuum filtration method using glass-fiber filter strips in PHD cell harvesters (Cambridge Technology, Inc., MA), washing the filter strips three times with saline (1 mL). Nonspecific binding was determined in the presence of 1 μM ET-1. IC50 values are calculated using an average of at least two separate determinations.

Test [2] deals with T2, ETA Receptor (Rattus norvegicus, UniProt P26684).
T2 construct: endogenous in cells; host or cells: MMQ rat pituitary cells (membranes)
T2 sequence (P26684 21-426): T1 sequence (P26684 21-426)
Kind of test: [125I]ET-1 binding to membranes from MMQ cells (ETA receptor binding assay, Table 4). The note with it: for inhibition at 1 µM: read-out: % Inhibition of ETA at 1 μM.

The target of test [3] is T3, ETB receptors of porcine cerebellar tissues (pET-B) (Sus scrofa, UniProt P35463).
T3 construct: porcine cerebellar tissues (known to contain ETB receptors); from tissue; host or cells: porcine cerebellum (membranes)
T3 sequence (P35463 27-443): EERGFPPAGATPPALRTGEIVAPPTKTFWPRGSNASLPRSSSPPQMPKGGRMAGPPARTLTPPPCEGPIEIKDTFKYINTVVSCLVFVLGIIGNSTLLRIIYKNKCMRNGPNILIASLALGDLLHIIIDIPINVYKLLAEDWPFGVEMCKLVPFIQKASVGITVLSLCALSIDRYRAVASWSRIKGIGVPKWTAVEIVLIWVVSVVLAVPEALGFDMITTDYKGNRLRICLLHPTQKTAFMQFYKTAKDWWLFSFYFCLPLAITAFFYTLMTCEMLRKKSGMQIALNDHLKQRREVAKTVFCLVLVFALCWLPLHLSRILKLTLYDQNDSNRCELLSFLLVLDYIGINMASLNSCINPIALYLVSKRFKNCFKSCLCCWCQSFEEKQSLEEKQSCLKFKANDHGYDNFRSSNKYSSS
Put plainly: ETA/ETB selectivity: (125I)ET-3 competition binding, ETB assay in porcine cerebellum membranes (pET-B). As for the experimental part: as §1, §2

Where [4] appears, read: MMQ cell membranes, 0.1 nM (125I)ET-1, read-out: rET-A IC50.
[5] abbreviates: test compound at 1 μM, 0.1 nM [125I]ET-1, MMQ cell membranes, 4 hours at 25° C.
Setting [6] is: porcine cerebellum membranes, 0.1 nM (125I)ET-3, read-out: pET-B IC50.

As usually defined, the IC50 is the concentration that inhibits the measured activity by half. One may read the inhibition as the relative decrease from the control value, in per cent. Take `CCCCN(CCCC)C(=O)CN1CC(c2cc(OC)c3c(c2)OCO3)C(C(=O)O)C1CC(C)(C)CCC` (stereo not shown) [compound 514]: the IC50 in test [1] (setting [4]) came to 0.001 µM; in test [3] it was 26 µM. Further, the inhibition at 1 µM in test [2] (setting [5]) was found to be 100%.
For `CCCCN(CCCC)C(=O)CN1C[C@H](c2cc(OC)c3c(c2)OCO3)[C@@H](C(=O)O)[C@@H]1CC(C)(C)CCC` [compound 536] the same measures were 0.00052 µM, 17 µM and 100%.
As to `CCCCN(CCCN(C)C)C(=O)CN1CC(c2ccc3c(c2)OCO3)C(C(=O)O)C1c1ccc(OC)cc1` (stereo not shown) [compound 527], the IC50 in test [1] (setting [4]) was 0.0079 µM; in test [3] (setting [6]), 10 µM. The inhibition at 1 µM in test [2] (setting [5]) was found to be 96.6%.
For the compound `CCCC(CCC)N(C(=O)CN1C[C@H](c2ccc3c(c2)OCO3)[C@@H](C(=O)O)[C@@H]1CCN1CCCC1=O)c1ccc(F)c(C)c1` [compound 521], the figures for the IC50 in test [1] (setting [4]) and in test [3] (setting [6]) were 0.00067 µM and 37 µM, respectively. For the same compound, the inhibition at 1 µM in test [2] (setting [5]) amounted to 100%.
Regarding `CCCCN(CCCC)C(=O)CN1CC(c2ccc3c(c2)OCO3)C(C(=O)O)C1CC(C)CCC` (stereo not shown) [compound 502], the IC50 in test [1] worked out at 0.003 µM; in test [3], 71 µM. The inhibition at 1 µM in test [2] came to 95.7%.
Take `CCCCN(CCC[N+](C)(C)C)C(=O)CN1CC(c2ccc3c(c2)OCO3)C(C(=O)O)C1c1ccc(OC)cc1` (stereo not shown) [compound 528]: the half-maximal inhibitory concentration (IC50) in test [1] (setting [4]) came out at 0.011 µM; in test [3] (setting [6]), 43 µM. Also, the inhibition at 1 µM in test [2] (setting [5]) was 98.3%.
For `CCCCN(CCCC)C(=O)CN1C[C@H](c2ccc3c(c2)OCO3)[C@@H](C(=O)O)[C@@H]1CCN1CCCC1=O` [compound 520] the same measures were 0.0002 µM, 28 µM and 97.4%.
With `CCCN(CC1CC1)C(=O)CN1CC(c2ccc3c(c2)OCO3)C(C(=O)O)C1c1ccc(OC)cc1` (stereo not drawn) [Example 38, trans,trans-2-(4-Methoxyphenyl)-4-(1,3-benzodioxol-5-yl)-1-(N-cyclopropylmethyl-N-propylaminocarbonylmethyl)-pyrrolidine-3-carboxylic acid], in test [2] (setting [5]), the “% Inhibition of ETA at 1 μM” value is listed as 100.0%.
For `CCCCN(CCCCN)C(=O)CN1CC(c2ccc3c(c2)OCO3)C(C(=O)O)C1c1ccc(OC)cc1` (stereo not shown) [compound 529], the 50% inhibitory concentration (IC50) in test [1] (setting [4]) turned out to be 0.0036 µM; in test [3] (setting [6]), 6.3 µM. Further, in test [2] (setting [5]), the inhibition at 1 µM worked out at 98.1%.

For the origin of these results see patent US7208517B1, “Endothelin antagonists” (Abbott Labortories, priority 1994, dated 2007).
